Consider twelve compounds from BindingDB's records for doi:10.3109/14756366.2011.621122 (Ondokuz Mayis University, 2012).

What all share (test): CA Activity Assay
What all share (settings): pH 7.4

Assay [1] concerns the target T1, Carbonic anhydrase 3 (Bos taurus, UniProt Q3SZX4).
T1 sequence (Q3SZX4 whole entry): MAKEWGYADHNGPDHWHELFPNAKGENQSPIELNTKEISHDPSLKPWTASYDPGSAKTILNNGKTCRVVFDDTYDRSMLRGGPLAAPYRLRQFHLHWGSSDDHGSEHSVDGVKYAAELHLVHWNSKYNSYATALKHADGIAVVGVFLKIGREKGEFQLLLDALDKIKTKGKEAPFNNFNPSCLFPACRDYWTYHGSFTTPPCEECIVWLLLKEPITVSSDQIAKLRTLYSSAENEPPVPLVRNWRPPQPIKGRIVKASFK

In assay [2] the target is Carbonic anhydrase 6 (Homo sapiens, UniProt P23280).
Sequence of Carbonic anhydrase 6 (P23280 whole entry): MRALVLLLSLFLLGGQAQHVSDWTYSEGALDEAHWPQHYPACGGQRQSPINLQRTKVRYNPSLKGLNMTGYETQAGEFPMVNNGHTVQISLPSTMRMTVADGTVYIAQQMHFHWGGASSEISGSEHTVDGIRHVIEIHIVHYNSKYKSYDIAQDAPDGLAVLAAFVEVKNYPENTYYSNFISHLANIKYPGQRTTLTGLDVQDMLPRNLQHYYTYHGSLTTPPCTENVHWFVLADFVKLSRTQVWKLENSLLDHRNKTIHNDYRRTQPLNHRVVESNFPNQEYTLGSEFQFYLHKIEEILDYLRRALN
Assay [3] has as its target Carbonic anhydrase 2 (Homo sapiens, UniProt P00918).
For assay [4], the target named is Carbonic anhydrase 1 (Homo sapiens, UniProt P00915).
Sequence of Carbonic anhydrase 1 (P00915 whole entry): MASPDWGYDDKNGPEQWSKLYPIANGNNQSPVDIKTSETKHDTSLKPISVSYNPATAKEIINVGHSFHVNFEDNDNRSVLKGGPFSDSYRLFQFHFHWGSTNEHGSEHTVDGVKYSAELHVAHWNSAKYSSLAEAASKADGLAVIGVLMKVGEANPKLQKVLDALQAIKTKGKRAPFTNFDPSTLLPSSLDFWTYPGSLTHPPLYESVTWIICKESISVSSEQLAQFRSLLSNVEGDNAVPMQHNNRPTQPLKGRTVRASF

In assay [1], `Oc1ccccc1` displayed an IC50 of 4.63 µM.
In assay [1], `c1ccc(-c2cc(OCCCN3CCCC3)nc(-c3ccccc3)n2)cc1` registered an IC50 of 66.7 µM.
Take `Oc1ccccc1O` [1,2-Dihydroxybenzene, XI]: half-maximal inhibition in assay [1] (IC50) required 5.79 µM.
`O[C@@H]1CCCC[C@H]1O` [(1R,2R)-trans-1,2-cyclohexanediol] registered a Ki in assay [1] of 4.28 µM.
With `Cc1ccc(S(=O)(=O)Nc2ccccc2)cc1` [CA inhibitor, 2], the inhibition constant (Ki) in assay [2] worked out at 13.5 µM; in assay [3], 14.3 µM; in assay [1] it was 13.1 µM; in assay [4] it was 210 µM.
For `Cc1ccc(NS(=O)(=O)c2ccc(C)cc2)cc1` [Carbonic anhydrase inhibitors (CAIs), 1], the inhibitory constant (Ki) in assay [2] was found to be 24.3 µM; in assay [3], 1.03 µM; in assay [1], 2.43 µM; in assay [4], 50.1 µM.
For `Cc1ccc(S(=O)(=O)N[C@@H]2C=CCC[C@@H]2O)cc1` [Carbonic anhydrase inhibitors (CAIs), 3], the Ki in assay [2] was 4.48 µM; in assay [3], 3.72 µM; in assay [1], 2.67 µM; in assay [4], 70.2 µM.
Take `Cc1ccc(S(=O)(=O)N2[C@@H]3C=CCC[C@@H]3OC2(C)C)cc1` [Carbonic anhydrase inhibitors (CAIs), 4]: the Ki in assay [2] came out at 275 µM; in assay [3], 21.7 µM; in assay [1], 57.4 µM; in assay [4], 379 µM.
For `Cc1ccc(S(=O)(=O)N[C@@H]2[C@@H](O)[C@@H](O)CC[C@@H]2O)cc1` [Carbonic anhydrase inhibitors (CAIs), 5], in that order: 1.12 µM, 0.47 µM, 0.59 µM and 5.48 µM.
Regarding `Cc1ccc(S(=O)(=O)N[C@@H]2[C@@H](O)[C@H](O)CC[C@@H]2O)cc1` [Carbonic anhydrase inhibitors (CAIs), 6], the inhibitory constant (Ki) in assay [2] was 3.78 µM; in assay [3] it was 0.82 µM; in assay [1], 1.75 µM; in assay [4], 9.34 µM.
The matching figures for `O[C@@H]1CCCC[C@@H]1O` [Carbonic anhydrase inhibitors (CAIs), 7]: 16.7 µM, 1.84 µM, 1.19 µM and 21.7 µM.
The matching figures for `Nc1ccc(S(=O)(=O)Nc2ccccn2)cc1` [MLS000069725]: 11.7 µM, 0.348 µM, 93.2 µM and 26.2 µM.

In general, IC50 refers to the concentration needed to halve the response being measured. High values mean weaker potency in that assay, low ones greater potency in that assay. Broadly, the Ki is a measure of affinity in units of concentration, obtained from inhibition or displacement. Low values mean higher affinity, high ones lower affinity.
